In PMC4264749, “Phlebotomy Treatment for Elimination of Perfluoroalkyl Acids in a Highly Exposed Family: A Retrospective Case-Series” (PLoS ONE, 2014):
Where two headings read alike, the source gives them in different places.

Tests used:
[1] = set-up: method as in PMID 17805419; details: cited from earlier work
[2] = set-up: method as in PMID 23980546; details: urinary excretion, China, cited from earlier work
[3] = set-up: method as in earlier work; details: 2009–2011; cited from earlier work
[4] = Apparent elimination half-life (HLapp) and phlebotomy efficiency coefficient in treated family members; format: in vivo, human; details: family members with regular phlebotomy, except parent
Source text: To evaluate the effect of phlebotomy, versus the expected rate of intrinsic elimination, we graphically and statistically compared the observed decreasing trends in each family member (fitted to a simple exponential decay model) with reference population elimination kinetics. Specifically, for the reference population of occupationally exposed retirees, we considered: i) the 95% confidence interval of the geometric mean elimination rate for each PFAA, and ii) the fastest individual rate of elimination rate among the reference population. For comparative purposes, the concentration of each PFAA in serum on the first day of the intervention was taken as time zero, and the models were forced through this starting point.
One metric that was calculated to compare the efficiency of the phlebotomy for removal of different PFAAs in each family member was termed the phlebotomy efficiency coefficient (EC). This was based on the subtractive difference between HLapp (yrs) in each treated family member and the geometric mean HLin (yrs) of the reference population according to Equation 1 . [drawing 1] (1)

[5] = Serum PFAA concentrations in family members during intermittent phlebotomy (HPLC-MS/MS); format: in vivo, human; details: for Serum concentration before treatment: before phlebotomy
Source text: After receiving informed consent, intermittent phlebotomy was undertaken at an overall rate (Table 2) that was equal to or less than the maximum rate of what is done for routine blood donations at the Canadian Blood Services: ∼500 ccs of whole blood every 56 days. Frequency and timing of blood removal was not consistent between family members because of their personal availability, success at each time of venesection, and compliance of each participant. […] Mineral supplementation was discussed and was taken by each participant.
All serum samples were submitted to ALS Laboratories (Edmonton, AB) for quantitative analysis of PFAAs (see Supporting Information, S1 Table). Samples were extracted by solid phase extraction and concentrations of PFHxS, PFOS, and PFOA were determined using high performance liquid chromatography/tandem mass spectrometry. Formic acid (0.1 M) along with a mixture of isotopically labeled PFAAs (Wellington Laboratories, Guelph, Ontario) were added to 1.0 mL of serum. The mixture was vortexed, sonicated, and subjected to solid phase extraction. The extract was concentrated to 100 uL and an instrument performance internal standard was added along with 200 uL of 90% 20 mM aqueous acetic acid/10% methanol. Procedural blanks were run with each set of samples, and method limits of quantification (LOQ) were 0.5 ng/mL for each analyte. For the few PFAA levels that fell below this LOQ (shown as hollow circles in Figs. 1–3), LOQ/√2 (i.e. 0.35 ng/mL) was substituted for purposes of data analysis. PFHxS, PFOS, and PFOA levels in all participating family members were >LOQ throughout the intervention except for 3 PFOS measurements out of 16 total measurements in the 3rd child and one PFOA measurement out of 9 total measurements in the […]. Written informed consent was given by participants (or parents in the case of children) for their clinical records to be used in this study.

O=S(=O)(O)C(F)(F)C(F)(F)C(F)(F)C(F)(F)C(F)(F)C(F)(F)F [PFHxS, Perfluorohexane sulfonate]
HLin of fastest eliminator in the reference population ([1]; reference population of occupationally exposed retirees (26 individuals)): 2.2 yrs
95% confidence interval of the geometric mean HLin ([1]; reference population of occupationally exposed retirees): 5.8–9.2 yrs
intrinsic human elimination half-life (HLin) ([1]; serum, highly contaminated retirees >55 yrs, previously occupationally exposed): 8.5 years
HLin, 95% confidence interval ([1]; serum, retirees >55 yrs, previously occupationally exposed): 6.4–10.6 yrs
HLapp ([2]; males and post-menopausal females): 35 years
HLapp ([2]; reproductive-aged females): 7.7 years
95th percentile of serum concentration among Canadians [3]: 8.9 ng/mL
HLapp compared with geometric mean HLin of reference population [4]: significantly shorter
Serum concentration before treatment ([5]; 1st Child): 0.0786 µg/mL
Serum concentration ([5]; 1st Child, sampling date 2009.10.12): 0.0519 µg/mL
Serum concentration ([5]; 1st Child, sampling date 2009.12.24): 0.0405 µg/mL
Serum concentration ([5]; 1st Child, sampling date 2009.6.9): 0.0786 µg/mL
Serum concentration ([5]; 1st Child, sampling date 2009.9.9): 0.039 µg/mL
Serum concentration ([5]; 1st Child, sampling date 2010.10.14): 0.0519 µg/mL
Serum concentration ([5]; 1st Child, sampling date 2010.1.17): 0.0303 µg/mL
Serum concentration ([5]; 1st Child, sampling date 2010.2.11): 0.0253 µg/mL
Serum concentration ([5]; 1st Child, sampling date 2010.4.14): 0.0299 µg/mL
Serum concentration ([5]; 1st Child, sampling date 2011.12.5): 0.01 µg/mL
Serum concentration ([5]; 1st Child, sampling date 2011.5.17, LOD=0.5ng/mL): 0.0318 µg/mL
Serum concentration ([5]; 1st Child, sampling date 2011.8.12, LOD=0.5ng/mL): 0.0278 µg/mL
Serum concentration ([5]; 1st Child, sampling date 2012.12.28, LOD=0.5ng/mL): 0.0217 µg/mL
Serum concentration ([5]; 1st Child, sampling date 2012.4.24): 0.0327 µg/mL
Serum concentration ([5]; 1st Child, sampling date 2012.8.21): 0.0251 µg/mL
Serum concentration ([5]; 1st Child, sampling date 2013.3.30): 0.0181 µg/mL
Serum concentration ([5]; 1st Child, sampling date 2013.7.30): 0.0119 µg/mL
Serum concentration before treatment ([5]; 2nd Child): 0.14 µg/mL
Serum concentration ([5]; 2nd Child, sampling date 2009.10.24): 0.0975 µg/mL
Serum concentration ([5]; 2nd Child, sampling date 2009.6.6): 0.14 µg/mL
Serum concentration ([5]; 2nd Child, sampling date 2009.7.2): 0.124 µg/mL
Serum concentration ([5]; 2nd Child, sampling date 2009.7.30): 0.132 µg/mL
Serum concentration ([5]; 2nd Child, sampling date 2009.8.24): 0.162 µg/mL
Serum concentration ([5]; 2nd Child, sampling date 2009.9.27): 0.0672 µg/mL
Serum concentration ([5]; 2nd Child, sampling date 2010.1.3): 0.0579 µg/mL
Serum concentration ([5]; 2nd Child, sampling date 2010.2.15): 0.0447 µg/mL
Serum concentration ([5]; 2nd Child, sampling date 2011.10.2): 0.0474 µg/mL
Serum concentration ([5]; 2nd Child, sampling date 2011.12.24): 0.0432 µg/mL
Serum concentration ([5]; 2nd Child, sampling date 2011.4.27): 0.0723 µg/mL
Serum concentration ([5]; 2nd Child, sampling date 2011.8.14): 0.063 µg/mL
Serum concentration ([5]; 2nd Child, sampling date 2012.12.24): 0.0787 µg/mL
Serum concentration ([5]; 2nd Child, sampling date 2012.4.6): 0.0483 µg/mL
Serum concentration ([5]; 2nd Child, sampling date 2013.5.11.): 0.0348 µg/mL
Serum concentration ([5]; 2nd Child, sampling date 2013.7.15): 0.0271 µg/mL
Serum concentration before treatment ([5]; 3rd Child): 0.293 µg/mL
Serum concentration ([5]; 3rd Child, sampling date 2010.3.12): 0.168 µg/mL
Serum concentration ([5]; 3rd Child, sampling date 2010.5.23): 0.0852 µg/mL
Serum concentration ([5]; 3rd Child, sampling date 2011.1.6): 0.0987 µg/mL
Serum concentration ([5]; 3rd Child, sampling date 2011.11.26): 0.0312 µg/mL
Serum concentration ([5]; 3rd Child, sampling date 2011.2.24): 0.114 µg/mL
Serum concentration ([5]; 3rd Child, sampling date 2011.4.30): 0.0828 µg/mL
Serum concentration ([5]; 3rd Child, sampling date 2011.6.13): 0.092 µg/mL
Serum concentration ([5]; 3rd Child, sampling date 2011.9.27): 0.108 µg/mL
Serum concentration ([5]; 3rd Child, sampling date 2012.10.16): 0.0639 µg/mL
Serum concentration ([5]; 3rd Child, sampling date 2012.1.8): 0.051 µg/mL
Serum concentration ([5]; 3rd Child, sampling date 2012.12.9): 0.0954 µg/mL
Serum concentration ([5]; 3rd Child, sampling date 2012.3.4): 0.0615 µg/mL
Serum concentration ([5]; 3rd Child, sampling date 2012.4.28): 0.11 µg/mL
Serum concentration before treatment ([5]; 4th Child): 0.167 µg/mL
starting serum concentration relative to 95th centile among Canadians ([5]; 4th child (4th child)): ~20 fold
Serum concentration after treatment ([5]; Average of 6 family members, after phlebotomy): 0.0233 µg/mL
Serum concentration before treatment ([5]; Average of 6 family members): 0.125 µg/mL
Serum concentration before treatment ([5]; Parent one): 0.0441 µg/mL
Serum concentration ([5]; Parent one, sampling date 2009.10.11): 0.0203 µg/mL
Serum concentration ([5]; Parent one, sampling date 2009.10.12): 0.025 µg/mL
Serum concentration ([5]; Parent one, sampling date 2009.11.12): 0.0295 µg/mL
Serum concentration ([5]; Parent one, sampling date 2009.12.14): 0.0354 µg/mL
Serum concentration ([5]; Parent one, sampling date 2009.2.2): 0.0441 µg/mL
Serum concentration ([5]; Parent one, sampling date 2009.5.18): 0.035 µg/mL
Serum concentration ([5]; Parent one, sampling date 2009.6.1): 0.0417 µg/mL
Serum concentration ([5]; Parent one, sampling date 2009.7.4): 0.0268 µg/mL
Serum concentration ([5]; Parent one, sampling date 2009.9.1): 0.0435 µg/mL
Serum concentration ([5]; Parent one, sampling date 2010.10.10): 0.0224 µg/mL
Serum concentration ([5]; Parent one, sampling date 2010.1.17): 0.0345 µg/mL
Serum concentration ([5]; Parent one, sampling date 2010.3.13): 0.0212 µg/mL
Serum concentration ([5]; Parent one, sampling date 2011.1.6): 0.0192 µg/mL
Serum concentration ([5]; Parent one, sampling date 2011.11.26): 0.0087 µg/mL
Serum concentration ([5]; Parent one, sampling date 2011.2.24): 0.0131 µg/mL
Serum concentration ([5]; Parent one, sampling date 2011.4.30): 0.0188 µg/mL
Serum concentration ([5]; Parent one, sampling date 2011.6.22): 0.0169 µg/mL
Serum concentration ([5]; Parent one, sampling date 2011.8.4): 0.018 µg/mL
Serum concentration ([5]; Parent one, sampling date 2011.9.27): 0.0257 µg/mL
Serum concentration ([5]; Parent one, sampling date 2012..12.28): 0.0174 µg/mL
Serum concentration ([5]; Parent one, sampling date 2012.1.14): 0.0215 µg/mL
Serum concentration ([5]; Parent one, sampling date 2012.11.1): 0.0191 µg/mL
Serum concentration ([5]; Parent one, sampling date 2012.3.4): 0.0195 µg/mL
Serum concentration ([5]; Parent one, sampling date 2012.4.29): 0.0231 µg/mL
Serum concentration ([5]; Parent one, sampling date 2012.7.8): 0.0183 µg/mL
Serum concentration ([5]; Parent one, sampling date 2012.8.21): 0.0217 µg/mL
Serum concentration ([5]; Parent one, sampling date 2013.10.27): 0.0088 µg/mL
Serum concentration ([5]; Parent one, sampling date 2013.2.18): 0.0157 µg/mL
Serum concentration ([5]; Parent one, sampling date 2013.3.30): 0.016 µg/mL
Serum concentration ([5]; Parent one, sampling date 2013.5.11): 0.0131 µg/mL
Serum concentration ([5]; Parent one, sampling date 2013.7.15): 0.0078 µg/mL
Serum concentration ([5]; Parent one, sampling date 2013.9.8): 0.0182 µg/mL
Serum concentration before treatment ([5]; Parent two): 0.0293 µg/mL
Serum concentration ([5]; Parent two, sampling date 2009.6.1): 0.0293 µg/mL
Serum concentration ([5]; Parent two, sampling date 2009.7.7): 0.0213 µg/mL
Serum concentration ([5]; Parent two, sampling date 2009.8.24): 0.0195 µg/mL
Serum concentration ([5]; Parent two, sampling date 2010.1.3): 0.0163 µg/mL
Serum concentration ([5]; Parent two, sampling date 2010.4.11, LOD=0.5ng/mL): 0.0178 µg/mL
Serum concentration ([5]; Parent two, sampling date 2012.3.13): 0.0161 µg/mL
Serum concentration ([5]; Parent two, sampling date 2013.1.1): 0.0132 µg/mL
Serum concentration ([5]; Parent two, sampling date 2013.10.6): 0.0135 µg/mL
Serum concentration ([5]; Parent two, sampling date 2013.6.22): 0.0091 µg/mL
